Assay results from patent publication US8106055B2, “Substituted amide compounds” (Gruenenthal GmbH, priority 2007, dated 2012).
Like-named read-outs stand apart in the source and are kept apart here.

Assays:
[1] = target: T1, human bradykinin 1 receptor (B1R) (Homo sapiens, UniProt P46663); assay: Functional investigation on the human bradykinin 1 receptor (B1R), Ca2+ FLIPR assay in CHO K1 hB1R cells; type: cell-based; details: test substance 10 μM; for inhibition at 10 µM: CHO-K1, B1R antagonism human, read-out: B1R Ant. h [10 μM] % Inhibition
T1 construct: expressed in transfected cells; host or cells: CHO K1 cells
T1 sequence (P46663 1-353): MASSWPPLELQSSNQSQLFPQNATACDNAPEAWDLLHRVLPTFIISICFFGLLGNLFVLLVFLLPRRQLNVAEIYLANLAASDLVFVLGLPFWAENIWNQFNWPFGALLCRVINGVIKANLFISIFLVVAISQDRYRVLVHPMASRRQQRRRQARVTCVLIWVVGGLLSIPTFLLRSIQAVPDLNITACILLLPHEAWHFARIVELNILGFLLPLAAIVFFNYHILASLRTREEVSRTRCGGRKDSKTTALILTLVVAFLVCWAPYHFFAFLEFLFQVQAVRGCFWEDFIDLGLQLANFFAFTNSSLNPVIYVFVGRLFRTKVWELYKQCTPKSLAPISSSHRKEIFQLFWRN
Summary of the method: (§1)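 Cells were dye-loaded with Fluo-4 plus probenecid, then test substances added and Ca2+ influx compared with agonist control for % activation. After 10-20 min, EC80 agonist (Lys-Des-Arg9-bradykinin human; Des-Arg9-bradykinin rat) was applied; suppression gave % inhibition and IC50 values.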

[2] = target: T2, bradykinin 1 receptor (B1R) of the rat (Rattus norvegicus, UniProt P97583); assay: Functional investigation on the rat bradykinin 1 receptor (B1R), Ca2+ FLIPR assay in CHO K1 rB1R cells; type: cell-based; details: CHO-K1, B1R antagonism rat, test substance 10 μM, read-out: B1R Ant. r [10 μM] % Inhibition
T2 construct: expressed in transfected cells; host or cells: CHO K1 cells
T2 sequence (P97583 1-337): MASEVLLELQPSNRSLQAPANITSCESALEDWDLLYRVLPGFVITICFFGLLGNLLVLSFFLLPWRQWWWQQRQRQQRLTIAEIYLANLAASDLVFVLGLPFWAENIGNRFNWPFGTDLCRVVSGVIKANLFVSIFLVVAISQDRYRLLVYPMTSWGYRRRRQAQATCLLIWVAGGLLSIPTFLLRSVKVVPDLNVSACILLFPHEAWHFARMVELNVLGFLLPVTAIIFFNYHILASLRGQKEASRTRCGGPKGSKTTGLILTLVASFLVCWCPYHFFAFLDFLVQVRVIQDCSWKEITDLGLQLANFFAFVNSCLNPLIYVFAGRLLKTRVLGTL
Summary of the method: as §1

[3] = target: T3, human μ opiate receptor (Homo sapiens, UniProt P35372); assay: Affinity for the human μ opiate receptor ([3H]-naloxone displacement, CHO-K1 receptor membrane preparation, SPA); type: binding; details: 1.5 h, test concentration 1 μM
T3 construct: purchased PerkinElmer Life Sciences, Zaventem, Belgium RB-HOM; host or cells: CHO-K1 cells (membrane preparation)
T3 sequence (P35372 whole entry): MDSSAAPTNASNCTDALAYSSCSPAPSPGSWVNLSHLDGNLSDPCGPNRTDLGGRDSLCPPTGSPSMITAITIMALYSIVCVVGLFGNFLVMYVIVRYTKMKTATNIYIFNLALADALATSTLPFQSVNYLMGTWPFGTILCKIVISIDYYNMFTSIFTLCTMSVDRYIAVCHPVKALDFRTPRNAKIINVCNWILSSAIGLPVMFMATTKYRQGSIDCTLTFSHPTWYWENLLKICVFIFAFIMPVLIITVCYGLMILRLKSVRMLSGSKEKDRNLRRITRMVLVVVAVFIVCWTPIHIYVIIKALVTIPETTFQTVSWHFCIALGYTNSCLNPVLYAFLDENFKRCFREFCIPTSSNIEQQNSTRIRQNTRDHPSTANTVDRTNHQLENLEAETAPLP
Summary of the method: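 Scintillation proximity binding on human μ receptor membranes from CHO-K1 cells used 1 nmol/l [3H]-naloxone over 90 min at room temperature in 50 mmol/l Tris-HCl, 0.06% BSA. Percent inhibition was recorded at 1 μM.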

[4] = Table 3, to be read in the same way as Table 1, read-out: μ
[5] = % inhibition compared with the maximum achievable inhibition

| Structure (SMILES) | inhibition at 10 µM ([1]; Ca2+ FLIPR, CHO K1 hB1R cells) [%] | inhibition at 10 µM ([2]; Ca2+ FLIPR, CHO K1 rB1R cells) [%] | inhibition at 1 µM [3, 4] [%] | inhibition at 10 µM [1, 5] [%] | inhibition at 10 µM [2, 5] [%] | B1R Ant. h [10 μM] % Inhibition ([1]; B1R antagonism human, Ca2+ FLIPR, CHO K1 hB1R cells) [%] | inhibition at 1 µM ([3]; Table 2, read-out: μ receptor) [%] |
| --- | --- | --- | --- | --- | --- | --- | --- |
| COc1cc(C)c(S(=O)(=O)N2CCCC2COCC(=O)NC2CCC(C(c3ccccc3)N3CCN(C)CC3)CC2)c(C)c1 (stereo not drawn) [Example 695, 2-((1-(4-methoxy-2,6-dimethylphenylsulfonyl)pyrrolidin-2-yl)methoxy)-N-(4-((4-methylpiperazin-1-yl)(phenyl)methyl)cyclohexyl)acetamide] | 103 | 103 | 27 | – | – | – | – |
| O=C(COCC1CCCCN1S(=O)(=O)c1c(Cl)cc(Cl)cc1Cl)NC1CCC(C(c2ccccc2)N2CCOCC2)CC1 (stereo not drawn) [Example 700, N-(4-(morpholino(phenyl)methyl)cyclohexyl)-2-((1-(2,4,6-trichlorophenylsulfonyl)piperidin-2-yl)methoxy)acetamide] | 38 | 89 | 27 | – | – | – | – |
| COc1cc(C)c(S(=O)(=O)N2CCCCC2COCC(=O)N2CCC(C(c3cccc(F)c3)N3CCN(C)CC3)CC2)c(C)c1 (stereo not drawn) [Example 800, 1-(4-((3-fluorophenyl)(4-methylpiperazin-1-yl)methyl)piperidin-1-yl)-2-((1-(4-methoxy-2,6-dimethylphenylsulfonyl)piperidin-2-yl)methoxy)ethanone] | – | – | 7 | 108 | 97 | – | – |
| CN(CCOCC(=O)NCC1CCC(C(CCc2ccccc2)N2CCOCC2)CC1)S(=O)(=O)c1c(Cl)cc(Cl)cc1Cl (stereo not drawn) [Example 715, N-((4-(1-morpholino-3-phenylpropyl)cyclohexyl)methyl)-2-(2-(2,4,6-trichloro-N-methylphenylsulfonamido)ethoxy)acetamide] | 55 | 24 | 10 | – | – | – | – |
| CN(CCOCC(=O)NCC1CCC(C(CCc2ccccc2)N2CCOCC2)CC1)S(=O)(=O)c1c(Cl)cccc1Cl (stereo not drawn) [Example 721, 2-(2-(2,6-dichloro-N-methylphenylsulfonamido)ethoxy)-N-((4-(1-morpholino-3-phenylpropyl)cyclohexyl)methyl)acetamide] | 94 | 57 | 7 | – | – | – | – |
| COc1cc(C)c(S(=O)(=O)N2CCCCC2COCC(=O)NCC2CCC(C(c3ccccc3)N3CCOCC3)CC2)c(C)c1 (stereo not drawn) [Example 711, 2-((1-(4-methoxy-2,6-dimethylphenylsulfonyl)piperidin-2-yl)methoxy)-N-((4-(morpholino(phenyl)methyl)cyclohexyl)methyl)acetamide] | 86 | 103 | 33 | – | – | – | – |
| O=C(COC1CCN(S(=O)(=O)c2c(Cl)cc(Cl)cc2Cl)C1)NC1CCC(C(CCc2ccccc2)N2CCCCC2)CC1 (stereo not drawn) [Example 667, N-(4-(3-phenyl-1-(piperidin-1-yl)propyl)cyclohexyl)-2-(1-(2,4,6-trichlorophenylsulfonyl)pyrrolidin-3-yloxy)acetamide] | 57 | 17 | 32 | – | – | – | – |
| COc1cc(C)c(S(=O)(=O)N2CCCC2COCC(=O)NCC2CCC(C(c3ccccc3)N3CCOCC3)CC2)c(C)c1 (stereo not drawn) [Example 709, 2-((1-(4-methoxy-2,6-dimethylphenylsulfonyl)pyrrolidin-2-yl)methoxy)-N-((4-(morpholino(phenyl)methyl)cyclohexyl)methyl)acetamide] | 82 | 104 | 8 | – | – | – | – |
| O=C(COC1CCN(S(=O)(=O)c2c(Cl)cc(Cl)cc2Cl)C1)NCC1CCC(C(CCc2ccccc2)N2CCCC2)CC1 (stereo not drawn) [Example 723, N-((4-(3-phenyl-1-(pyrrolidin-1-yl)propyl)cyclohexyl)methyl)-2-(1-(2,4,6-trichlorophenylsulfonyl)pyrrolidin-3-yloxy)acetamide] | 90 | 40 | 35 | – | – | – | – |
| CN1CCN(C(c2ccccc2)C2CCC(NC(=O)COCCN(C)S(=O)(=O)c3ccc(Cl)cc3Cl)CC2)CC1 (stereo not drawn) [Example 704, 2-(2-(2,4-dichloro-N-methylphenylsulfonamido)ethoxy)-N-(4-((4-methylpiperazin-1-yl)(phenyl)methyl)cyclohexyl)acetamide] | 75 | 39 | 27 | – | – | – | – |
| COc1cc(C)c(S(=O)(=O)N2CCCCC2COCC(=O)NC2CCC(C(c3ccccc3)N3CCN(C)CC3)CC2)c(C)c1 (stereo not drawn) [Example 735, 2-((1-(4-methoxy-2,6-dimethylphenylsulfonyl)piperidin-2-yl)methoxy)-N-(4-((4-methylpiperazin-1-yl)(phenyl)methyl)cyclohexyl)acetamide] | 103 | 103 | 56 | – | – | – | – |
| CN(CCOCC(=O)NCC1CCC(C(c2ccccc2)N2CCOCC2)CC1)S(=O)(=O)c1ccc(Cl)cc1Cl (stereo not drawn) [Example 705, 2-(2-(2,4-dichloro-N-methylphenylsulfonamido)ethoxy)-N-((4-(morpholino(phenyl)methyl)cyclohexyl)methyl)acetamide] | 49 | -9 | 8 | – | – | – | – |
| COc1cc(C)c(S(=O)(=O)N(C)CCOCC(=O)NCC2CCC(C(c3ccccc3)N(C)C)CC2)c(C)c1C (stereo not drawn) [Example 623, N-[4-(dimethylaminophenylmethyl)-cyclohexylmethyl]-2-{2-[(4-methoxy-2,3,6-trimethylbenzenesulfonyl)-methylamino]-ethoxy}-acetamide] | – | 41 | – | – | – | 84 | 93 |
| O=C(COC1CCCN(S(=O)(=O)c2c(Cl)cc(Cl)cc2Cl)C1)NC1CCC(C(c2ccccc2)N2CCOCC2)CC1 (stereo not drawn) [Example 691, N-(4-(morpholino(phenyl)methyl)cyclohexyl)-2-(1-(2,4,6-trichlorophenylsulfonyl)piperidin-3-yloxy)acetamide] | 10 | 6 | 58 | – | – | – | – |
| CN(CCOCC(=O)NC1CCC(C(CCc2ccccc2)N2CCOCC2)CC1)S(=O)(=O)c1c(Cl)cc(C(F)(F)F)cc1Cl (stereo not drawn) [Example 670, 2-(2-(2,6-dichloro-N-methyl-4-(trifluoromethyl)phenylsulfonamido)ethoxy)-N-(4-(1-morpholino-3-phenylpropyl)cyclohexyl)acetamide] | 12 | 58 | 7 | – | – | – | – |
| CN1CCN(C(c2ccccc2)C2CCC(NC(=O)COC3CCCN(S(=O)(=O)c4c(Cl)cc(Cl)cc4Cl)C3)CC2)CC1 (stereo not drawn) [Example 692, N-(4-((4-methylpiperazin-1-yl)(phenyl)methyl)cyclohexyl)-2-(1-(2,4,6-trichlorophenylsulfonyl)piperidin-3-yloxy)acetamide] | 78 | 41 | 65 | – | – | – | – |
| O=C(COCC1CCCN1S(=O)(=O)c1c(Cl)cc(Cl)cc1Cl)NC1CCC(C(CCc2ccccc2)N2CCCCC2)CC1 (stereo not drawn) [Example 697, N-(4-(3-phenyl-1-(piperidin-1-yl)propyl)cyclohexyl)-2-((1-(2,4,6-trichlorophenylsulfonyl)pyrrolidin-2-yl)methoxy)acetamide] | 71 | 97 | 76 | – | – | – | – |
